Measurements reported in ChEMBL document CHEMBL1144814, “5-Sulfonyl-benzimidazoles as selective CB2 agonists” (Bioorg Med Chem Lett, 2008).

Assays:
Cannabinoid receptor 2 = Cannabinoid receptor 2 (Homo sapiens, UniProt P34972); experiment: Agonist activity at human CB2 receptor; type: functional
[1] = Ratio of EC50 for CB2 receptor to EC50 for CB1 receptor (unknow origin)
[2] = Metabolism in human liver microsomes after 15 mins
[3] = target: T1, Cannabinoid receptor 2 (Rattus norvegicus) (UniProt Q9QZN9); experiment: Agonist activity at rat CB2 receptor; type: functional
T1 sequence (whole entry): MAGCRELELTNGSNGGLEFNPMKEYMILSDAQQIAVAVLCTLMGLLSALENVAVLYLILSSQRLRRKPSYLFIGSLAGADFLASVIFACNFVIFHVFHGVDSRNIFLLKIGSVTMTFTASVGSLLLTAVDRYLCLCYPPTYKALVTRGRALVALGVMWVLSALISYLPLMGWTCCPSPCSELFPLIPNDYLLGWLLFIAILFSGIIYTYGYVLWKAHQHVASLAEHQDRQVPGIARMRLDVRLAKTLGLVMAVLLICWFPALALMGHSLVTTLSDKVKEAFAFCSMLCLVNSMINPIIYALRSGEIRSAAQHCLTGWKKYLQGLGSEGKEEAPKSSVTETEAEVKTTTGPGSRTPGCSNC

[4] = Oral bioavailability in Sprague-Dawley rat at 10 mg/kg; type: ADME, organism-based; conditions: in vivo
[5] = Ratio of drug level in brain to plasma in Sprague-Dawley rat at 10 mg/kg, po; type: ADME, organism-based; parameters: dose 10 mg/kg, route oral; conditions: read-out: BPR
[6] = Cmax in Sprague-Dawley rat at 10 mg/kg, po; type: ADME, organism-based; parameters: dose 10 mg/kg, route oral; conditions: in vivo
[7] = Tmax in Sprague-Dawley rat at 10 mg/kg, po; type: ADME, organism-based; parameters: dose 10 mg/kg, route oral; conditions: in vivo
[8] = Half life in Sprague-Dawley rat at 10 mg/kg, po; type: ADME, organism-based; parameters: dose 10 mg/kg, route oral; conditions: in vivo
[9] = AUC (0 to infinity) in Sprague-Dawley rat at 10 mg/kg, po; type: ADME, organism-based; parameters: time infinity, dose 10 mg/kg, route oral; conditions: plasma
Rattus norvegicus = experiment: Induction of CB1-mediated side effects in Sprague-Dawley rat at 40 mg/kg, po by tetrad test; type: organism-based; parameters: dose 40 mg/kg, route oral; conditions: in vivo
CYP2C19 = CYP2C19 (Homo sapiens, UniProt P33261); experiment: Inhibition of CYP2C19 at 10 uM; type: ADME
CYP2C9 = CYP2C9 (Homo sapiens, UniProt P11712); experiment: Inhibition of CYP2C9 at 10 uM; type: ADME
[10] = Fraction of dose absorbed in Sprague-Dawley rat at 10 mg/kg, po; type: ADME, organism-based; parameters: dose 10 mg/kg, route oral; conditions: in vivo, read-out: Fabs
Cytochrome P450 1A2 = target: T2, Cytochrome P450 1A2 (Homo sapiens, UniProt P05177); experiment: Inhibition of CYP1A2; type: ADME
T2 sequence (P05177 whole entry): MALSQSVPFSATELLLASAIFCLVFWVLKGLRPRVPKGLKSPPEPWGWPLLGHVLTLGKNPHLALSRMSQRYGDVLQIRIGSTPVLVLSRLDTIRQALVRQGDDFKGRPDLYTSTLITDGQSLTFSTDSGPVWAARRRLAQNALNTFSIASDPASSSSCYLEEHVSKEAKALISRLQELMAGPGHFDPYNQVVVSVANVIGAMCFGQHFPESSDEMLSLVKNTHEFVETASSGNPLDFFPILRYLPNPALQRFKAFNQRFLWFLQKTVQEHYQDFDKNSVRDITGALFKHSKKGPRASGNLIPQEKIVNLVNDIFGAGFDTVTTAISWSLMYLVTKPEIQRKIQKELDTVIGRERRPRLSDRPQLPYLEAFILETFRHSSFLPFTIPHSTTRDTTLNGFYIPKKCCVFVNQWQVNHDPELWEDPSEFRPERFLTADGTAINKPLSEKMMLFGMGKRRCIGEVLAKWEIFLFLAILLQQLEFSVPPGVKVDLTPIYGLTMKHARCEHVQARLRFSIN

Cytochrome P450 2C19 = Cytochrome P450 2C19 (Homo sapiens, UniProt P33261); experiment: Inhibition of CYP2C19; type: ADME
Cytochrome P450 2C9 = Cytochrome P450 2C9 (Homo sapiens, UniProt P11712); experiment: Inhibition of CYP2C9; type: ADME
Cytochrome P450 2D6 = Cytochrome P450 2D6 (Homo sapiens, UniProt P10635); experiment: Inhibition of CYP2D6; type: ADME
Cytochrome P450 3A4 = Cytochrome P450 3A4 (Homo sapiens, UniProt P08684); experiment: Inhibition of CYP3A4; type: ADME
[11] = Solubility at pH 7.4; type: physicochemical; conditions: buffer
[12] = Solubility at pH 4; type: physicochemical; conditions: buffer

Chain of Cannabinoid receptor 2 (P34972 whole entry): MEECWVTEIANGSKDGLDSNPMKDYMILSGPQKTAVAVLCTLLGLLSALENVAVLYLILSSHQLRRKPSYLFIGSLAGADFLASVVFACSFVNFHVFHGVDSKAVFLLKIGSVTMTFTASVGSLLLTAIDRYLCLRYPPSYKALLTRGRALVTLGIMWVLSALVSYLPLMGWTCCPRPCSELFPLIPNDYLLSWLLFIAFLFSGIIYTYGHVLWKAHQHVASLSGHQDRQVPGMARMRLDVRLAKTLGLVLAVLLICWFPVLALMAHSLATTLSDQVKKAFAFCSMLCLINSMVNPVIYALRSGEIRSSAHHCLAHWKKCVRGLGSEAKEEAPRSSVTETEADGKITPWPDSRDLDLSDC
Chain of CYP2C9 (P11712 whole entry): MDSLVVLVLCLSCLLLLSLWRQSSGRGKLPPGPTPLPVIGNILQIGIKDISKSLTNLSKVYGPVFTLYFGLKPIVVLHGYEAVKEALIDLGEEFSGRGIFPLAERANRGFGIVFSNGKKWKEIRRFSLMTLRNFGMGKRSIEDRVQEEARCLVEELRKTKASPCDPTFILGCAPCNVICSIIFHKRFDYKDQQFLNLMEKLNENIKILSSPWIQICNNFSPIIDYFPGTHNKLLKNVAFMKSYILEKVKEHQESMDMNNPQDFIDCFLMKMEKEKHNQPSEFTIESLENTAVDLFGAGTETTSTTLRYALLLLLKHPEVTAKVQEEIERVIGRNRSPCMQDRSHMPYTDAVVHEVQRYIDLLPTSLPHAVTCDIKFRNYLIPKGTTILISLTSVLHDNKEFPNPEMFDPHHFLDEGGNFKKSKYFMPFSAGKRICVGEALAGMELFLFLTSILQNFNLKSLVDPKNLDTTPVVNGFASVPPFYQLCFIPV
Chain of Cytochrome P450 2C9 (P11712 whole entry): as above
Chain of Cytochrome P450 3A4 (P08684 whole entry): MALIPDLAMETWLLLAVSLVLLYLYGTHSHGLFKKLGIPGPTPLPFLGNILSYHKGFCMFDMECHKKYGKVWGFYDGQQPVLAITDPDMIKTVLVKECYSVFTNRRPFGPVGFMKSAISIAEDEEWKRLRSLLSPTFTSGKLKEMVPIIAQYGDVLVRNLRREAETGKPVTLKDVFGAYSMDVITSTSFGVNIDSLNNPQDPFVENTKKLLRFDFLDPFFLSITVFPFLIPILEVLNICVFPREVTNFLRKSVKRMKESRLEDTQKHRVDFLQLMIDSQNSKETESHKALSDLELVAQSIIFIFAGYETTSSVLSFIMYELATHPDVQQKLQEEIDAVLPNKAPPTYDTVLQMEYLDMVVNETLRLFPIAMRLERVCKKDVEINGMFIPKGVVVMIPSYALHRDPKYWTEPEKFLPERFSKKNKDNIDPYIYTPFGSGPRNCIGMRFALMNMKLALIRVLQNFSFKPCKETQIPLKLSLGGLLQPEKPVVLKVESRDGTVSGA
Chain of CYP2C19 (P33261 whole entry): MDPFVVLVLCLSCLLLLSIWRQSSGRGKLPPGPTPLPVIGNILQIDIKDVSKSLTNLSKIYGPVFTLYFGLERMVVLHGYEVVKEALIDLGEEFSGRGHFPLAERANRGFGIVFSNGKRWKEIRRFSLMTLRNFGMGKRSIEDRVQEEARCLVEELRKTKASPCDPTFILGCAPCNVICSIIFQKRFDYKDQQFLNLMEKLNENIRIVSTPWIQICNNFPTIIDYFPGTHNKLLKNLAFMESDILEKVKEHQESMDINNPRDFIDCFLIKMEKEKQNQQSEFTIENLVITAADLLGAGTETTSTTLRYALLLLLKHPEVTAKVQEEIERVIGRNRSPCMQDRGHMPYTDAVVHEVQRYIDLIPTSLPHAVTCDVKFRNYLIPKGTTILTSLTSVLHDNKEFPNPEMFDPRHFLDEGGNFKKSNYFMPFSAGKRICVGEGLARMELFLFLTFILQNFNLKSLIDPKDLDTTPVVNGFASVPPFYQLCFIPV
Chain of Cytochrome P450 2C19 (P33261 whole entry): as above
Chain of Cytochrome P450 2D6 (P10635 whole entry): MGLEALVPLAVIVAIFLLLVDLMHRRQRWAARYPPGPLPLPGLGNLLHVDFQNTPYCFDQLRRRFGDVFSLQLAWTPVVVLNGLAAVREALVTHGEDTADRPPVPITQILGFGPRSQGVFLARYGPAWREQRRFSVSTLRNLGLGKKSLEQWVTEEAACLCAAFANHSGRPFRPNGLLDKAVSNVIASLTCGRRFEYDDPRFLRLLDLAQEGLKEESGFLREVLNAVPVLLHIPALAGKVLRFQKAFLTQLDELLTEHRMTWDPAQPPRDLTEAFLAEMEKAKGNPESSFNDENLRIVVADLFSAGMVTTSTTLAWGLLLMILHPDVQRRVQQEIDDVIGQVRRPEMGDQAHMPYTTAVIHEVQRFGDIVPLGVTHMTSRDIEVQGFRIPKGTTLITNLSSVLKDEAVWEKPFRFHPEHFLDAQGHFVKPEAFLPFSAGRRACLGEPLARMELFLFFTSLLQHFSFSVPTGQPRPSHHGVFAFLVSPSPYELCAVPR

Row | Structure (SMILES) | EC50 (Cannabinoid receptor 2) | Ratio EC50 [1] | metabolized at 0.25 h [2] | further results
1 | CC(C)(C)c1nc2cc(S(=O)(=O)CCCC(F)(F)F)ccc2n1CC1CCOCC1 | 1 nM | 285 | 36% | –
2 | CCOc1ccc(Cc2nc3cc(S(=O)(=O)CC)c(Cl)cc3n2CC2CCOCC2)cc1 | 20 nM | 537 | 66% | –
3 | CCS(=O)(=O)c1ccc2c(c1)nc(C)n2CC1CCCCC1 | 31 nM | – | – | –
4 | CCS(=O)(=O)c1ccc2c(c1)nc(C1CC1)n2CC1CCOCC1 | 4 nM | – | – | Efficacy (Cannabinoid receptor 2): 109%; Efficacy [3]: 0%
5 | CCOc1ccc(Cc2nc3cc([S+]([O-])CC)c(Cl)cc3n2CC2CCCCC2)cc1 (configuration not stated) | 6.3 nM | 8.2 | – | –
6 | CCOc1cc(S(=O)(=O)c2ccc3c(c2)nc(C(C)(C)C)n3CC2CCOCC2)ccn1 | 0.3 nM | 4270 | 48% | bioavailability [4]: 43%; Kp [5]: 0.1; Cmax [6]: 731 ng/mL; Tmax [7]: 0.5 h; half-life [8]: 3.4 h; AUC(0-inf) [9]: 2500 ng·h/mL; Activity (Rattus norvegicus): Non-toxic; inhibition at 10 µM (CYP2C19): 76%; inhibition at 10 µM (CYP2C9): 94%; Fa [10]: ≤ 1%
7 | CC(C)(C)c1nc2cc(S(=O)(=O)CCC(F)(F)F)ccc2n1CC1CCOCC1 | 1.3 nM | 394 | 13% | –
8 | CC(C)(C)c1nc2cc(S(=O)(=O)c3c(Cl)cccc3Cl)ccc2n1CC1CCOCC1 | 0.4 nM | 292 | 96% | –
9 | [O-][S+](Cc1ccc(Cl)cc1)c1cc2nc(C3CCCCC3)[nH]c2cc1Cl (configuration not stated) | < 1 nM | > 1000 | < 50% | Efficacy (Cannabinoid receptor 2): > 100%; Inhibition (Cytochrome P450 1A2): < 50%; Inhibition (Cytochrome P450 2C19): < 50%; Inhibition (Cytochrome P450 2C9): < 50%; Inhibition (Cytochrome P450 2D6): < 50%; Inhibition (Cytochrome P450 3A4): < 50%; solubility [11]: > 20 µM; solubility [12]: > 20 µM
10 | CC(C)(C)c1nc2cc(S(=O)(=O)c3ccc(CN)cc3)ccc2n1CC1CCOCC1 | 5 nM | 363 | – | –
11 | CCOc1ccc(Cc2nc3cc(Cl)c([S+]([O-])CC)cc3[nH]2)cc1 (configuration not stated) | > 10000 nM | – | – | –
12 | CC(C)(C)c1nc2cc(S(=O)(=O)Cc3ccc(C#N)cc3)ccc2n1CC1CCCCC1 | 0.5 nM | 436 | 73% | –
13 | CCOc1ccc(Cc2nc3cc([S+]([O-])CC)c(Cl)cc3n2CC2CCOCC2)cc1 (configuration not stated) | 20 nM | 484 | 95% | –
14 | CCS(=O)(=O)c1ccc2c(c1)nc(CC(C)C)n2CC1CCOCC1 | 4 nM | – | – | Efficacy (Cannabinoid receptor 2): 101%; Efficacy [3]: 43%
15 | CC(C)(C)c1nc2cc(S(=O)(=O)c3ccc(C#N)cc3)ccc2n1CC1CCOCC1 | 0.6 nM | 191 | 42% | –
16 | CC(C)(C)c1nc2cc(S(=O)(=O)CCC#N)ccc2n1CC1CCOCC1 | 4 nM | 2110 | 24% | –
17 | CCOc1ccc(Cc2nc3cc(S(=O)(=O)CC)c(Cl)cc3n2CC2CCCCC2)cc1 | 5 nM | 50 | 74% | –
18 | CCOc1ccc(Cc2nc3cc(SCC)c(Cl)cc3n2CC2CCCCC2)cc1 | 125 nM | 1.2 | 85% | –
19 | Cc1cc(S(=O)(=O)c2ccc3c(c2)nc(C(C)(C)C)n3CC2CCOCC2)ccn1 | 1.3 nM | 1620 | 40% | –

Row | Structure (SMILES) | EC50 (Cannabinoid receptor 2) | Ratio EC50 [1] | metabolized at 0.25 h [2] | further results
20 | CCS(=O)(=O)c1ccc2c(c1)nc(C(C)C)n2CC1CCCCC1 | 1.6 nM | – | – | Efficacy (Cannabinoid receptor 2): 101%; Efficacy [3]: 99%
21 | CC(C)(C)c1nc2cc(S(=O)(=O)CC3CC3)ccc2n1CC1CCOCC1 | 1.3 nM | 121 | 14% | –
22 | CC(C)(C)c1nc2cc(S(=O)(=O)CCN)ccc2n1CC1CCOCC1 | 10 nM | 912 | – | –
23 | CC(C)(C)c1nc2cc(S(=O)(=O)c3ccncc3)ccc2n1CC1CCOCC1 | 1.2 nM | 215 | 28% | –
24 | CCS(=O)(=O)c1ccc2c(c1)nc(C(C)(C)C)n2CC1CCOCC1 | 1.2 nM | 551 | 0% | Efficacy (Cannabinoid receptor 2): 120%; Efficacy [3]: 102%
25 | CC(C)(C)c1nc2cc(S(=O)(=O)C(F)(F)c3ccc(C#N)cc3)ccc2n1CC1CCCCC1 | 1.6 nM | 62 | 28% | –
26 | CC(C)(C)c1nc2cc(S(=O)(=O)c3nccs3)ccc2n1CC1CCOCC1 | 0.8 nM | 4 | 25% | –
27 | CC(C)(C)c1nc2cc(S(=O)(=O)c3ccccc3)ccc2n1CC1CCCCC1 | 1.2 nM | 14 | 23% | –
28 | CCOc1ccc(Cc2nc3cc(SCC)c(Cl)cc3n2CC2CCOCC2)cc1 | 4 nM | 75 | 98% | –
29 | CCS(=O)(=O)c1ccc2c(c1)nc(C(C)(C)C)n2CC1CCCCC1 | 0.8 nM | – | – | Efficacy (Cannabinoid receptor 2): 104%
30 | CC(=O)N(C)Cc1ccc(S(=O)(=O)c2ccc3c(c2)nc(C(C)(C)C)n3CC2CCOCC2)cc1 | 1.6 nM | 550 | 50% | –
31 | CC(C)(C)c1nc2cc(S(=O)(=O)c3ccnc(F)c3)ccc2n1CC1CCOCC1 | 0.8 nM | 495 | 40% | –
32 | CC(C)(C)c1nc2cc(S(=O)(=O)c3ccco3)ccc2n1CC1CCOCC1 | 0.4 nM | 40 | – | –
33 | CC(=O)NCCCS(=O)(=O)c1ccc2c(c1)nc(C(C)(C)C)n2CC1CCOCC1 | 100 nM | 109 | – | –
34 | CC(C)(C)c1nc2cc(S(=O)(=O)CCO)ccc2n1CC1CCOCC1 | 2.5 nM | 3850 | 6% | –
35 | CCNCCCS(=O)(=O)c1ccc2c(c1)nc(C(C)(C)C)n2CC1CCOCC1 | 158 nM | 4.3 | – | –
36 | CCOc1ccc(Cc2nc3cc(SCC)c(Cl)cc3[nH]2)cc1 | 2000 nM | – | – | –
37 | CC(C)(C)c1nc2cc(S(=O)(=O)c3cccc(C#N)c3)ccc2n1CC1CCOCC1 | 0.5 nM | 1460 | 61% | –
38 | CCOc1ccc(Cc2nc3cc(S(=O)(=O)CC)ccc3n2CC2CCOCC2)cc1 | 4 nM | 1600 | 34% | Efficacy (Cannabinoid receptor 2): 44%
